biological target: MNK2 (Homo sapiens (Human), UniProt Q9HBH9); test: MNK Biochemical Enzymatic Assay (ADP-Glo), MNK2 binding assay
Experimental: MNK Biochemical Enzymatic Assay. This protocol establishes the binding assays for MNK1 and MNK2 using ADP-Glo assay. MNK phosphorylates the substrate and converts ATP to ADP, which was detected by Envision and used to reflect the reminding activity of MNK. Reagents and equipment used in the assay are listed below, followed by the protocol.
• a) Add 50 μL compound to 384-well dilution plate • b) Dilute compound 1:3 in succession in DMSO for each column for 10+0 pts (refer to dilution plate map) • c) Transfer 0.1 μL diluted compound solution in each row to 384 assay plate using Echo, each column containing 2 replicates (refer to assay plate map) • d) Add 5 μL enzyme working solution to 384-well assay plate, centrifuge 1000 RPM for 1 min • e) Incubate at 25° C. for 15 min • f) Add 5 μL substrate working solution to initiate reaction • g) Incubate at 25° C. for 60 min • h) Add 10 μL ADP Glo reagent, centrifuge 1000 RPM for 1 min • i) Incubate at 25° C. for 60 min • j) Add 20 μL kinase detection reagent, centrifuge 1000 RPM for 1 min • k) Incubate at 25° C. for 60 min • l) Read on Envision for US LUM as RLU • m) Data analysis: IC50s were determined based on a non-linear regression analysis of data collected.

Chain of MNK2 (Q9HBH9 whole entry): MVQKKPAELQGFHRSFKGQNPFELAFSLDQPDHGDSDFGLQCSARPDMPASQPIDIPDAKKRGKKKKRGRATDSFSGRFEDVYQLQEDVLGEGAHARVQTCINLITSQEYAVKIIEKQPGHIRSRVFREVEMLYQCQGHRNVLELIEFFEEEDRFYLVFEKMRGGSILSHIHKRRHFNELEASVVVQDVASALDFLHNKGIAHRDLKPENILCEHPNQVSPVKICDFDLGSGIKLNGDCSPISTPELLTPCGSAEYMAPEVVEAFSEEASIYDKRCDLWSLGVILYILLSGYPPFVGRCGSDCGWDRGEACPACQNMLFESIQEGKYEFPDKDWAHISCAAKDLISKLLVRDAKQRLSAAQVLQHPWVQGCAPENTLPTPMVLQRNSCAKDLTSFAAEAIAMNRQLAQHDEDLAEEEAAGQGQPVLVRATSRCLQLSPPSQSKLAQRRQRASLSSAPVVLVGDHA

Structure (SMILES)	IC50 [nM]
CSc1ncc2c(-c3cc4c(s3)C(=O)NC43CCCCC3)n[nH]c2n1 [Compound XIX, 2′-(6-(Methylthio)-1H-pyrazolo[3,4-d]pyrimidin-3-yl)spiro[cyclohexane-1,4′-thieno[2,3-c]pyrrol]-6′(5′H)-one]	100 to 1000
O=C1NC2(CCCCC2)c2cc(Nc3cc(Nc4ccccc4)ncn3)sc21 [Compound XXIII-B, 2′-((6-(Phenylamino)pyrimidin-4-yl)amino)spiro[cyclohexane-1,4′-thieno[2,3-c]pyrrol]-6′(5′H)-one]	10 to 100
O=C1NC2(CCCCC2)c2cc(Nc3cc(NC(=O)C4CCNC4)ncn3)sc21 (stereo not drawn) [Compound XXIII-V, N-(6-((6′-oxo-5′,6′-dihydrospiro[cyclohexane-1,4′-thieno[2,3-c]pyrrol]-2′-yl)amino)pyrimidin-4-yl)pyrrolidine-3-carboxamide]	10 to 100
O=C1NC2(CCCCC2)c2cc(Nc3cc(Cl)ncn3)sc21 [Compound XXIII-G, 2′-((6-Chloropyrimidin-4-yl)amino)spiro[cyclohexane-1,4′-thieno[2,3-c]pyrrol]-6′(5′H)-one]	10 to 100
Nc1cc(Nc2cc3c(s2)C(=O)NC32CCCC2)ncn1 [Compound X-E, 2′-((6-aminopyrimidin-4-yl)amino)spiro[cyclopentane-1,4′-thieno[2,3-c]pyrrol]-6′(5′H)-one]	10 to 100
O=C1NC2(CCCCC2)c2cc(Nc3ccncn3)sc21 [Compound X-A, 2′-(pyrimidin-4-ylamino)spiro[cyclohexane-1,4′-thieno[2,3-c]pyrrol]-6′(5′H)-one]	10 to 100
O=C1NC2(CCCCC2)c2cc(Nc3cc(N[C@H]4CCC[C@@H]4O)ncn3)sc21 [Compound XXIII-X, 2′-((6-(((1S,2S)-2-hydroxycyclopentyl)amino)pyrimidin-4-yl)amino)spiro[cyclohexane-1,4′-thieno[2,3-c]pyrrol]-6′(5′H)-one]	10 to 100
O=C1NC2(CCCCC2)c2cc(Nc3cc(NCc4cccs4)ncn3)sc21 [Compound XXIV, 2′-((6-((Thiophen-2-ylmethyl)amino)pyrimidin-4-yl)amino)spiro[cyclohexane-1,4′-thieno[2,3-c]pyrrol]-6′(5′H)-one]	10 to 100
O=C1NC2(CCCCC2)c2cc(Nc3ncnc4sc5c(c34)CCCC5)sc21 [Compound XXIII-F, 2′-((5,6,7,8-Tetrahydrobenzo[4,5]thieno[2,3-d]pyrimidin-4-yl)amino)spiro [cyclohexane-1,4′-thieno[2,3-c]pyrrol]-6′(5′H)-one]	10 to 100
Cn1cccc(Nc2cc(Nc3cc4c(s3)C(=O)NC43CCCCC3)ncn2)c1=O [Compound XXIV-L, 2′-((6-((1-methyl-2-oxo-1,2-dihydropyridin-3-yl)amino)pyrimidin-4-yl)amino)spiro[cyclohexane-1,4′-thieno[2,3-c]pyrrol]-6′(5′H)-one]	100 to 1000
O=C1NC2(CCCCC2)c2cc(Nc3cc(N4CCC(F)(F)CC4)ncn3)sc21 [Compound XXIII-L, 2′-((6-(4,4-Difluoropiperidin-1-yl)pyrimidin-4-yl)amino)spiro[cyclohexane-1,4′-thieno[2,3-c]pyrrol]-6′(5′H)-one]	> 1000
Cc1cc(Nc2ncnc3c2CCN3)[n+]([O-])c2c1C(=O)NC21CCCCC1 [Compound XXIX-AB, 2′-((6,7-dihydro-5H-pyrrolo[2,3-d]pyrimidin-4-yl)amino)-4′-methyl-5′-oxo-5′,6′-dihydrospiro[cyclohexane-1,7′-pyrrolo[3,4-b]pyridine] 1′-oxide]	10 to 100
CN1CCN(c2cc(Nc3cc4c(s3)C(=O)NC43CCCCC3)ncn2)CC1 [Compound XXIII-M, 2′-((6-(4-Methylpiperazin-1-yl)pyrimidin-4-yl)amino)spiro[cyclohexane-1,4′-thieno[2,3-c]pyrrol]-6′(5′H)-one]	> 1000
O=C1NC2(CCCCC2)c2cc(Nc3ncnc(NC(=O)C4CC4)c3Cl)sc21 [Compound XX-7, N-(5-Chloro-6-((6′-oxo-5′,6′-dihydrospiro[cyclohexane-1,4′-thieno[2,3-c]pyrrol]-2′-yl)amino)pyrimidin-4-yl)cyclopropanecarboxamide]	100 to 1000
O=C1NC2(CCCCC2)c2cc(Nc3cc(NC4CCOCC4)ncn3)sc21 [Compound XXIV-D, 2′-((6-((tetrahydro-2H-pyran-4-yl)amino)pyrimidin-4-yl)amino)spiro[cyclohexane-1,4′-thieno[2,3-c]pyrrol]-6′(5′H)-one]	100 to 1000
O=C1NC2(CCCCC2)c2cc(Nc3cc(N4CCCC4)ncn3)sc21 [Compound XXIII-H, 2′-((6-(Pyrrolidin-1-yl)pyrimidin-4-yl)amino)spiro[cyclohexane-1,4′-thieno[2,3-c]pyrrol]-6′(5′H)-one]	> 1000
Nc1cc(Nc2cc3c(s2)C(=O)NC32CCNCC2)ncn1 [Compound VIII-A, 2′-((6-aminopyrimidin-4-yl)amino)spiro[piperidine-4,4′-thieno[2,3-c]pyrrol]-6′(5′H)-one]	10 to 100
O=C1NC2(CCCCC2)c2cc(Nc3cc(N4CCOCC4)ncn3)sc21 [Compound XXIII-K, 2′-((6-Morpholinopyrimidin-4-yl)amino)spiro[cyclohexane-1,4′-thieno[2,3-c]pyrrol]-6′(5′H)-one]	> 1000

Further lines, results first:

IC50 [nM]	Structure (SMILES)
10 to 100	Cc1cc(Nc2cc(NCC3CCOC3)ncn2)[n+]([O-])c2c1C(=O)NC21CCCCC1 (stereo not drawn) [Compound XXIX-AV, 4′-methyl-5′-oxo-2′-((6-(((tetrahydrofuran-3-yl)methyl)amino)pyrimidin-4-yl)amino)-5′,6′-dihydrospiro[cyclohexane-1,7′-pyrrolo[3,4-b]pyridine] 1′-oxide]
10 to 100	C[C@@H]1CN(C(=O)C2CCc3c(sc4ncnc(Nc5cc6c(s5)C(=O)NC65CCCCC5)c34)C2)CCN1C (stereo partly drawn) [Compound XXV-A, 2′-((7-((R)-3,4-Dimethylpiperazine-1-carbonyl)-5,6,7,8-tetrahydrobenzo[4,5]thieno[2,3-d]pyrimidin-4-yl)amino)spiro[cyclohexane-1,4′-thieno[2,3-c]pyrrol]-6′(5′H)-one]
10 to 100	O=C1NC2(CCCCC2)c2nc(Nc3cc(N[C@H]4CCCOC4)ncn3)sc21 [Compound XXVIII-D, (S)-2′-((6-((tetrahydro-2H-pyran-3-yl)amino)pyrimidin-4-yl)amino)spiro[cyclohexane-1,4′-pyrrolo[3,4-d]thiazol]-6′(5′H)-one]
100 to 1000	Cc1cc(Nc2cc(NC3CCS(=O)(=O)C3)ncn2)[n+]([O-])c2c1C(=O)NC21CCCCC1 (stereo not drawn) [Compound XXIX-AR, 2′-((6-((1,1-dioxidotetrahydrothiophen-3-yl)amino)pyrimidin-4-yl)amino)-4′-methyl-5′-oxo-5′,6′-dihydrospiro[cyclohexane-1,7′-pyrrolo[3,4-b]pyridine] 1′-oxide]
10 to 100	O=C1NC2(CCCCC2)c2nc(Nc3ccnc(Nc4ccccn4)c3)sc21 [Compound XXVIII-J, 2′-((2-(pyridin-2-ylamino)pyridin-4-yl)amino)spiro[cyclohexane-1,4′-pyrrolo[3,4-d]thiazol]-6′(5′H)-one]
10 to 100	Cc1cc(Nc2cc(N[C@@H]3CCOC3)ncn2)[n+]([O-])c2c1C(=O)NC21CCCCC1 [Compound XXIX-AX, (R)-4′-methyl-5′-oxo-2′-((6-((tetrahydrofuran-3-yl)amino)pyrimidin-4-yl)amino)-5′,6′-dihydrospiro[cyclohexane-1,7′-pyrrolo[3,4-b]pyridine] 1′-oxide]
100 to 1000	CC(=O)N1CC[C@H](Nc2cc(Nc3cc(C)c4c([n+]3[O-])C3(CCCCC3)NC4=O)ncn2)C1 [Compound XXIX-J, (S)-2′-((6-((1-acetylpyrrolidin-3-yl)amino)pyrimidin-4-yl)amino)-4′-methyl-5′-oxo-5′,6′-dihydrospiro[cyclohexane-1,7′-pyrrolo[3,4-b]pyridine] 1′-oxide]
> 1000	CC1(C)COC(Nc2cc(Nc3nc4c(s3)C(=O)NC43CCCCC3)ncn2)=N1 [Compound XXVIII-E, 2′-((6-((4,4-dimethyl-4,5-dihydrooxazol-2-yl)amino)pyrimidin-4-yl)amino)spiro[cyclohexane-1,4′-pyrrolo[3,4-d]thiazol]-6′(5′H)-one]
10 to 100	O=C1NC2(CCCCC2)c2cc(Nc3ncnc4cccnc34)sc21 [Compound XXX, 2′-(pyrido[3,2-d]pyrimidin-4-ylamino)spiro[cyclohexane-1,4′-thieno[2,3-c]pyrrol]-6′(5′H)-one]
> 1000	Cc1cc(Nc2ncnc(Nc3ccccn3)c2C)[n+]([O-])c2c1C(=O)NC21CCCCC1 [Compound XXIX-AN, 4′-methyl-2′-((5-methyl-6-(pyridin-2-ylamino)pyrimidin-4-yl)amino)-5′-oxo-5′,6′-dihydrospiro[cyclohexane-1,7′-pyrrolo[3,4-b]pyridine] 1′-oxide]
10 to 100	COCCNc1cc(Nc2cc(C)c3c([n+]2[O-])C2(CCCCC2)NC3=O)ncn1 [Compound XXIX-B, 2′-((6-((2-methoxyethyl)amino)pyrimidin-4-yl)amino)-4′-methyl-5′-oxo-5′,6′-dihydrospiro[cyclohexane-1,7′-pyrrolo[3,4-b]pyridine] 1′-oxide]
10 to 100	Cc1cc(Nc2cc(Nc3cccnc3)ncn2)[n+]([O-])c2c1C(=O)NC21CCCCC1 [Compound XXIX-AJ, 4′-methyl-5′-oxo-2′-((6-(pyridin-3-ylamino)pyrimidin-4-yl)amino)-5′,6′-dihydrospiro[cyclohexane-1,7′-pyrrolo[3,4-b]pyridine] 1′-oxide]
